Source: ChEMBL document CHEMBL3864160, “Discovery of fluorobenzimidazole HCV NS5A inhibitors” (Bioorg Med Chem Lett, 2016)
pEC50: −log10 of the molar value.

What was measured:
[1] = Inhibition of Hepatitis C virus genotype 2b replicon NS5A transfected in human HuH7 cells assessed as decrease in replication of viral replicon after 4 days by luciferase reporter gene assay; assay type: cell-based, Hepatitis C virus subtype 2b; conditions: Huh-7, 96 h
[2] = Inhibition of Hepatitis C virus genotype 4a replicon NS5A transfected in human HuH7 cells assessed as decrease in replication of viral replicon after 4 days by luciferase reporter gene assay; assay type: cell-based, Hepatitis C virus subtype 4a; conditions: Huh-7, 96 h
[3] = Inhibition of Hepatitis C virus genotype 1a H77 replicon NS5A transfected in human HuH7 cells assessed as decrease in replication of viral replicon after 4 days by luciferase reporter gene assay; assay type: cell-based, Hepatitis C virus (isolate H77); conditions: Huh-7, 96 h
[4] = Inhibition of Hepatitis C virus genotype 1b Con1 replicon NS5A transfected in human HuH7 cells assessed as decrease in replication of viral replicon after 4 days by luciferase reporter gene assay; assay type: cell-based, Hepatitis C virus (isolate Con1); conditions: Huh-7, 96 h
[5] = Inhibition of Hepatitis C virus genotype 3a replicon NS5A transfected in human HuH7 cells assessed as decrease in replication of viral replicon after 4 days by luciferase reporter gene assay; assay type: cell-based, Hepatitis C virus subtype 3a; conditions: Huh-7, 96 h
[6] = Inhibition of Hepatitis C virus genotype 2a replicon NS5A transfected in human HuH7 cells assessed as decrease in replication of viral replicon after 4 days by luciferase reporter gene assay; assay type: cell-based, Hepatitis C virus subtype 2a; conditions: Huh-7, 96 h
[7] = Inhibition of Hepatitis C virus genotype 6a replicon NS5A transfected in human HuH7 cells assessed as decrease in replication of viral replicon after 4 days by luciferase reporter gene assay; assay type: cell-based, Hepatitis C virus subtype 6a; conditions: Huh-7, 96 h
[8] = Inhibition of Hepatitis C virus genotype 1a H77 replicon NS5A transfected in human HuH7 cells assessed as decrease in replication of viral replicon in presence of 40% human plasma after 4 days by luciferase reporter gene assay; assay type: cell-based, Hepatitis C virus (isolate H77); conditions: Huh-7, Plasma, 96 h
[9] = Inhibition of Hepatitis C virus genotype 1b Con1 replicon NS5A transfected in human HuH7 cells assessed as decrease in replication of viral replicon in presence of 40% human plasma after 4 days by luciferase reporter gene assay; assay type: cell-based, Hepatitis C virus (isolate Con1); conditions: Huh-7, Plasma, 96 h

Row | pEC50 [1] | pEC50 [2] | pEC50 [3] | pEC50 [4] | pEC50 [5] | pEC50 [6] | pEC50 [7] | pEC50 [8] | pEC50 [9] | Structure (SMILES)
1 | 9.29 | 10.40 | 9.24 | > 10.52 | 8.19 | 7.86 | – | – | – | COC(=O)N[C@H](C(=O)N1CCC[C@H]1c1nc2cc(-c3ccc(-c4cc(F)c5[nH]c([C@@H]6CCCN6C(=O)[C@@H](NC(=O)OC)C(C)C)nc5c4)cc3)cc(F)c2[nH]1)C(C)C
2 | 8.19 | 8.96 | 8.25 | 8.81 | < 7.00 | < 7.00 | – | – | – | COC(=O)N[C@H](C(=O)N1CCC[C@H]1c1nc2cc(-c3ccc(-c4cnc5[nH]c([C@@H]6CCCN6C(=O)[C@@H](NC(=O)OC)C(C)C)nc5c4)cc3)cnc2[nH]1)C(C)C
3 | 9.66 | 10.11 | 9.29 | 10.80 | 8.84 | 7.37 | 7.76 | – | – | COC(=O)N[C@H](C(=O)N1CCC[C@H]1c1nc2c(F)c(-c3ccc(-c4c(F)cc5[nH]c([C@@H]6CCCN6C(=O)[C@@H](NC(=O)OC)C(C)C)nc5c4F)cc3)c(F)cc2[nH]1)C(C)C
4 | 7.05 | 9.26 | 7.59 | 10.03 | < 7.00 | < 7.00 | < 7.00 | – | – | COC(=O)N[C@H](C(=O)N1CCC[C@H]1c1nc2cc(-c3ccc(-c4cc5nc([C@@H]6CCCN6C(=O)[C@@H](NC(=O)OC)C(C)C)[nH]c5cc4OC)cc3)c(OC)cc2[nH]1)C(C)C
5 | 7.25 | 9.79 | 9.20 | 10.02 | 7.03 | < 7.00 | < 7.00 | – | – | COC(=O)N[C@H](C(=O)N1CCC[C@H]1c1nc2cc(-c3ccc(-c4cc(OC)c5[nH]c([C@@H]6CCCN6C(=O)[C@@H](NC(=O)OC)C(C)C)nc5c4)cc3)cc(OC)c2[nH]1)C(C)C
6 | 10.60 | 11.30 | 11.00 | 11.00 | 10.70 | 9.23 | 9.88 | 9.28 | 9.25 | COC(=O)N[C@H](C(=O)N1CCC[C@H]1c1nc2c(C)c([C@H]3CC[C@H](c4ccc5[nH]c([C@@H]6CCCN6C(=O)[C@@H](NC(=O)OC)C(C)C)nc5c4C)N3c3ccc(C(C)(C)C)cc3)ccc2[nH]1)C(C)C
7 | < 8.00 | 8.72 | 7.64 | 9.97 | < 7.00 | < 7.00 | < 8.00 | – | – | COC(=O)N[C@H](C(=O)N1CCC[C@H]1c1nc2cc(-c3ccc(-c4cc(C(F)(F)F)c5[nH]c([C@@H]6CCCN6C(=O)[C@@H](NC(=O)OC)C(C)C)nc5c4)cc3)cc(C(F)(F)F)c2[nH]1)C(C)C
8 | 9.49 | 10.85 | 10.42 | 10.85 | 9.98 | 7.55 | 8.15 | – | – | COC(=O)N[C@H](C(=O)N1CCC[C@H]1c1nc2c(C)c(-c3ccc(-c4ccc5[nH]c([C@@H]6CCCN6C(=O)[C@@H](NC(=O)OC)C(C)C)nc5c4C)cc3)ccc2[nH]1)C(C)C
9 | < 7.00 | < 7.00 | < 7.00 | 8.13 | < 7.00 | < 7.00 | – | – | – | COC(=O)N[C@H](C(=O)N1CCC[C@H]1c1cc2nc(-c3ccc(-c4ccc5[nH]c([C@@H]6CCCN6C(=O)[C@@H](NC(=O)OC)C(C)C)cc5n4)cc3)ccc2[nH]1)C(C)C
10 | 9.65 | 9.48 | 9.89 | 10.89 | 9.19 | 7.40 | 8.32 | – | – | COC(=O)N[C@H](C(=O)N1CCC[C@H]1c1nc2c(F)c(-c3ccc(-c4ccc5[nH]c([C@@H]6CCCN6C(=O)[C@@H](NC(=O)OC)C(C)C)nc5c4F)cc3)ccc2[nH]1)C(C)C
11 | 8.35 | 10.31 | 7.92 | 11.22 | 7.36 | 7.30 | 7.67 | – | – | COC(=O)N[C@H](C(=O)N1CCC[C@H]1c1nc2cc(-c3ccc(-c4cc5nc([C@@H]6CCCN6C(=O)[C@@H](NC(=O)OC)C(C)C)[nH]c5cc4C(F)(F)F)cc3)c(C(F)(F)F)cc2[nH]1)C(C)C
12 | 7.11 | 8.92 | 8.93 | 9.71 | 7.81 | < 7.00 | < 7.00 | – | – | COCc1c(-c2ccc(-c3ccc4[nH]c([C@@H]5CCCN5C(=O)[C@@H](NC(=O)OC)C(C)C)nc4c3COC)cc2)ccc2[nH]c([C@@H]3CCCN3C(=O)[C@@H](NC(=O)OC)C(C)C)nc12
13 | 9.83 | > 10.52 | 8.83 | 11.10 | 8.35 | 8.04 | 8.49 | – | – | COC(=O)N[C@H](C(=O)N1CCC[C@H]1c1nc2cc(-c3ccc(-c4cc5nc([C@@H]6CCCN6C(=O)[C@@H](NC(=O)OC)C(C)C)[nH]c5cc4C)cc3)c(C)cc2[nH]1)C(C)C
14 | 8.84 | 8.74 | 8.95 | 9.55 | 8.17 | < 7.00 | – | – | – | COC(=O)N[C@H](C(=O)N1CCC[C@H]1c1nc2nc(-c3ccc(-c4ccc5[nH]c([C@@H]6CCCN6C(=O)[C@@H](NC(=O)OC)C(C)C)nc5n4)cc3)ccc2[nH]1)C(C)C
15 | 11.05 | 11.15 | 10.66 | 11.00 | 10.70 | 9.21 | 9.94 | 9.08 | 9.68 | COC(=O)N[C@H](C(=O)N1CCC[C@H]1c1nc2c(F)c([C@H]3CC[C@H](c4ccc5[nH]c([C@@H]6CCCN6C(=O)[C@@H](NC(=O)OC)C(C)C)nc5c4F)N3c3ccc(C(C)(C)C)cc3)ccc2[nH]1)C(C)C
16 | > 10.52 | 11.10 | 10.12 | > 10.52 | 9.35 | 7.51 | 9.56 | – | – | COC(=O)N[C@H](C(=O)N1CCC[C@H]1c1nc2cc(-c3ccc(-c4cc5nc([C@@H]6CCCN6C(=O)[C@@H](NC(=O)OC)C(C)C)[nH]c5cc4F)cc3)c(F)cc2[nH]1)C(C)C
17 | 8.41 | 9.39 | 9.01 | 10.51 | 7.76 | < 7.00 | 7.64 | – | – | COC(=O)N[C@H](C(=O)N1CCC[C@H]1c1nc2cc(-c3ccc(-c4cc(C)c5[nH]c([C@@H]6CCCN6C(=O)[C@@H](NC(=O)OC)C(C)C)nc5c4)cc3)cc(C)c2[nH]1)C(C)C
18 | 10.22 | 10.21 | 9.57 | 10.66 | 8.95 | 7.12 | – | – | – | COC(=O)N[C@H](C(=O)N1CCC[C@H]1c1nc2ccc(-c3ccc(-c4ccc5nc([C@@H]6CCCN6C(=O)[C@@H](NC(=O)OC)C(C)C)[nH]c5c4)cc3)cc2[nH]1)C(C)C
19 | 10.42 | 11.00 | 10.47 | 10.89 | 10.43 | 8.74 | 9.23 | 8.73 | 9.14 | COC(=O)N[C@H](C(=O)N1CCC[C@H]1c1nc2c(Cl)c([C@H]3CC[C@H](c4ccc5[nH]c([C@@H]6CCCN6C(=O)[C@@H](NC(=O)OC)C(C)C)nc5c4Cl)N3c3ccc(C(C)(C)C)cc3)ccc2[nH]1)C(C)C
